Reference: US6790869B2, “Resveratrol analogs for prevention of disease” (Rutgers, The State University of New Jersey, priority 1999, dated 2004)
Read-outs that look alike come from different tables or passages of the source.

Experiments:
[1] = system: W138 human diploid fibroblasts; test: Cell proliferation assay, viable cells counted by trypan blue dye exclusion; format: cell-based; design: key to Growth Rate in Cells Following Exposure to Resveratrol Analogs, W138 Cells: +: >60% growth inhibition; —: no effect or only slight inhibition observed; conditions: for Growth Rate in Cells Following Exposure to Resveratrol Analogs, W138 Cells: at the concentration in parentheses after the analog, 5 days in culture
Method: (§1) Initial tests examined the potential cancer preventive activity of the analogs. Resveratrol and its analogs were evaluated in W138 and SV40 transformed W138VA cells and in preneoplastic 184-B5/HER and neoplastic SK-BR-3 human mammary epithelial cells. Cell proliferation, apoptosis, and gene expression studies were conducted using standard methodologies.
(§2) W138 human diploid fibroblasts and cancerous SV40-transformed W138 cells (W138VA) were used in a cell proliferation assay. Growth rate and viability of these cells was determined following addition of each analog. Doses tested ranged from 50 ng to 300 μg per ml or 1 μM to 100 μM concentrations in culture media. Cell cultures were grown for 5 days in the presence of the various doses of analogs. Growth rate was measured by counting viable cells using the trypan blue dye exclusion method. Resveratrol inhibited cell growth at low concentrations, less than 10 μM. […] MR-1 was not active as an inhibitor of cell growth even at doses as high as 100 μM.

[2] = system: SV40-transformed W138 cells (W138VA); test: as above; format: cell-based, human; design: key to Growth Rate in Cells Following Exposure to Resveratrol Analogs, W138VA Cells: +: >60% growth inhibition; —: no effect or only slight inhibition observed; conditions: for Growth Rate in Cells Following Exposure to Resveratrol Analogs, W138VA Cells: at the concentration in parentheses after the analog, 5 days in culture
Method: as §1, §2

W138 and W138VA cells = test: Cell proliferation assay, result not separated by cell line; format: cell-based, human; conditions: for effective concentration for growth inhibition: value in parentheses in Table 1, W138 / W138VA cells, 5 days
Method: as §1, §2

W138 cells [3] = test: Morphological changes in cells; format: cell-based, human; conditions: normal W138 cells
Description: (§3) In addition to inhibition of cell growth, treatment of W138 and W138VA cells with analogs led to morphological changes in the cells. Treatment of W138 cells with resveratrol and its analogs R-1 and R-3 led to elongation of normal W138 cells. Methoxy analogs such as MR-0 and MR-3 caused the flattening of W138 cells.

W138 cells [4] = test: Apoptosis assay, fluorescent labeling of fragmented DNA; format: cell-based, human
Description: (§4) The effect of the analogs on apoptosis was also examined. Apoptosis is characterized by nuclear DNA fragmentation that is mediated through a variety of signal transduction pathways. An assay was used that relies on fluorescent labeling of fragmented DNA.

W138VA cells = test: as above; format: cell-based, human
Description: as §4

184-B5/HER cells [5] = test: Growth inhibition in 184-B5/HER cells; format: cell-based; conditions: Homo sapiens
Method: as §1
(§5) Resveratrol and its analogs were also tested in 184-B5/HER cells.

184-B5/HER cells [6] = test: Cell cycle analysis; format: cell-based, human
Method: as §5

184-B5/HER cells [7] = test: Apoptosis assay, fluorescent labeling of fragmented DNA; format: cell-based, human
Description: as §4

184-B5/HER cells [8] = test: Anchorage-dependent colony formation assay; format: cell-based; conditions: Homo sapiens
Description: Cell colony formation was also examined in 184-B5/HER cells. […] Resveratrol, MR-0 and MR-2 produced approximately 25-40% inhibition in the anchorage-dependent colony formation assay. MR-3, however, produced almost a 80% inhibition of colony formation.

[9] = system: neutral β-galactosidase activity in W138 cells; test: Neutral β-galactosidase staining (senescence marker); format: cell-based, human; conditions: accompanying flattening
Description: as §3

[10] = system: human glyceraldehyde-3-phosphate dehydrogenase (HG3PDH) expression; test: Targeted gene assay by RT-PCR; format: cell-based; conditions: W138 and W138VA cells, serum-stimulated from G0
Method: (§6) Targeted gene assay was then performed using RT-PCR. Both normal (W138) and cancerous (W138VA) cells at resting phase (G0) were treated with 10-15% fetal bovine serum to initiate growth stimulation. Cells were then harvested at various time points during cell cycle progression. Total RNA was prepared from these cells according to standard RT-PCR methods. Paired gene specific primers were prepared and used including human glyceraldehyde-3-phosphate dehydrogenase HG3PDH), c-fos, c-myc, ornithine decarboxylase (ODC), proliferating cell nuclear antigen (PCNA), thymidine kinase (TK), cyclooxygenase 2 (COX2), BRCA1, BRCA2, p53, APC, MCC, pRb, cyclooxygenase 1 (COX1), bc12, and Bax. […] Expression of c-fos and c-myc, an early G1 event in normal W138 cells, were both deregulated in transformed W138VA cells. […] Similarly, treatment of cells, both normal and transformed, with either resveratrol or MR-3 had no effect on expression of ODC, PCNA, or TK genes (all cell cycle dependent genes).

c-fos expression = test: Targeted gene assay by RT-PCR; format: cell-based, human; conditions: W138 and W138VA cells, serum-stimulated from G0
Method: as §6

c-myc expression = test: Targeted gene assay by RT-PCR; format: cell-based, human; conditions: W138 and W138VA cells, serum-stimulated from G0
Method: as §6

[11] = system: ornithine decarboxylase (ODC) gene expression; test: Targeted gene assay by RT-PCR; format: cell-based, human; conditions: both normal and transformed cells
Method: as §6

[12] = system: proliferating cell nuclear antigen (PCNA) gene expression; test: Targeted gene assay by RT-PCR; format: cell-based, human; conditions: both normal and transformed cells
Method: as §6

[13] = system: thymidine kinase (TK) gene expression; test: Targeted gene assay by RT-PCR; format: cell-based, human; conditions: both normal and transformed cells
Method: as §6

BRCA1 gene expression = test: Targeted gene assay by RT-PCR; format: cell-based, human; conditions: for effect on expression of BRCA1 gene: human cells, all time points examined
Method: as §6
(§7) Both BRCA1 and BRCA2 are breast cancer genes that together appear to be responsible for more than 60% of total hereditary breast cancers. Therefore, resveratrol and its analogs appear to modulate the breast cancer genes.

BRCA2 gene expression = test: Targeted gene assay by RT-PCR; format: cell-based, human; conditions: for effect on expression of BRCA2 gene: human cells, all time points examined
Method: as §6, §7

[14] = system: cyclooxygenase 2 (COX2) expression; test: Targeted gene assay by RT-PCR; format: cell-based, human
Method: as §6

[15] = system: oncogene expression preneoplastic breast epithelial cells; test: In vivo tumor inhibition in an orthotransplant model; conditions: mice, AIN-76A diet with 400 ppm
Method: The in vivo tumor inhibitory effects of MR-3 were tested in an orthotransplant model. Mice were transplanted with an oncogene expression preneoplastic breast epithelial cells. Mice were then divided into groups with the control group fed AIN-76A diet alone. Another group of mice was fed AIN-76A diet supplemented with 400 ppm MR-3.

[16] = read-out: concentration that inhibited growth by 50% (IC50), 184-B5/HER cells
[17] = 184-B5/HER cells, continuous treatment with 4 μM, read-out: inhibition of colony formation

COc1cc(C=Cc2cc(OC)cc(OC)c2)cc(OC)c1 [MR-4, 3,3′,5′5′-tetramethoxystilbene]
inhibition of growth ([1]; W138 cells, 100 μM): inhibited growth
Growth Rate in Cells Following Exposure to Resveratrol Analogs, W138 Cells [1]: + (>60% growth inhibition)
inhibition of growth ([2]; W138VA cells, 100 μM): not W138VA cells
Growth Rate in Cells Following Exposure to Resveratrol Analogs, W138VA Cells [2]: —
effective concentration for growth inhibition (W138 and W138VA cells): MR4 (100 μM)

COc1cc(C=Cc2ccccc2)cc(OC)c1 [MR-1, 3,5-dimethoxystilbene]
Growth Rate in Cells Following Exposure to Resveratrol Analogs, W138 Cells [1]: —^4
Growth Rate in Cells Following Exposure to Resveratrol Analogs, W138VA Cells [2]: —
activity as an inhibitor of cell growth (W138 and W138VA cells; doses as high as 100 μM): not active
effective concentration for growth inhibition (W138 and W138VA cells): MR1 (100 μM)

Oc1ccc(C=Cc2cc(O)c(O)c(O)c2)cc1 [Analog R-3, 3,4,4′,5-tetrahydroxystilbene]
Growth Rate in Cells Following Exposure to Resveratrol Analogs, W138 Cells [1]: + (>60% growth inhibition)
Growth Rate in Cells Following Exposure to Resveratrol Analogs, W138VA Cells [2]: + (>60% growth inhibition)
fold less effective than resveratrol in inhibiting cell growth (W138 and W138VA cells; relative to resveratrol): 10 fold
effective concentration for growth inhibition (W138 and W138VA cells): R3 (10 μM)
morphological change of cells (W138 cells [3]): elongation
induction of apoptosis (W138 cells [4]): not in W138 cells
induction of apoptosis (W138VA cells): induced apoptosis

COc1cc(C=Cc2ccc(OC)c(OC)c2)cc(OC)c1 [MR-2, 3,3′,4,5′-tetramethoxystilbene]
IC50 (184-B5/HER cells [5]; [16]): 120 µM
cell cycle effect relative to solvent-treated control cultures (184-B5/HER cells [6]): progressive arrest of cell in the G2/M phase
induction of apoptosis versus solvent-treated control cells (184-B5/HER cells [7]): induced apoptosis to a significantly greater extent than solvent-treated control cells
inhibition at 4 µM (184-B5/HER cells [8]; [17]): 25 to 40%

Oc1cc(O)cc(C=Cc2ccccc2)c1 [Analog R-1, 3,5-dihydroxystilbene]
morphological change of cells (W138 cells [3]): elongation

COc1ccc(C=Cc2cc(OC)cc(OC)c2)cc1 [MR-0, 3,4′,5-trimethoxystilbene]
ability to inhibit cell growth compared with resveratrol ([1]; W138 cells): less effective than resveratrol
Growth Rate in Cells Following Exposure to Resveratrol Analogs, W138 Cells [1]: + (>60% growth inhibition)
ability to inhibit cell growth compared with resveratrol ([2]; W138VA cells): did not significantly affect
Growth Rate in Cells Following Exposure to Resveratrol Analogs, W138VA Cells [2]: + (>60% growth inhibition)
effective concentration for growth inhibition (W138 and W138VA cells): MR0 (100 μM)
morphological change of cells (W138 cells [3]): flattening
neutral β-galactosidase activity (staining) [9]: increase in neutral β-galactosidase activity
IC50 (184-B5/HER cells [5]; [16]): 10.5 µM
cell cycle effect relative to solvent-treated control cultures (184-B5/HER cells [6]): progressive arrest of cell in the G2/M phase
induction of apoptosis versus solvent-treated control cells (184-B5/HER cells [7]): induced apoptosis to a significantly greater extent than solvent-treated control cells
inhibition at 4 µM (184-B5/HER cells [8]; [17]): 25 to 40%

COc1cc(C=Cc2cc(OC)c(OC)c(OC)c2)cc(OC)c1 [MR-5, 3,3′,4,5,5′-pentamethoxystilbene]
Growth Rate in Cells Following Exposure to Resveratrol Analogs, W138 Cells [1]: + (>60% growth inhibition)
Growth Rate in Cells Following Exposure to Resveratrol Analogs, W138VA Cells [2]: + (>60% growth inhibition)
effective concentration for growth inhibition (W138 and W138VA cells): MR5 (100 μM)

Oc1ccc(C=Cc2cc(O)cc(O)c2)cc1 [Resveratrol, 3,4′,5-trihydroxystilbene]
Growth Rate in Cells Following Exposure to Resveratrol Analogs, W138 Cells [1]: +^2 (>60% growth inhibition)
Growth Rate in Cells Following Exposure to Resveratrol Analogs, W138VA Cells [2]: + (>60% growth inhibition)
concentration at which cell growth was inhibited (W138 and W138VA cells; 5 days in culture): less than 10 μM
effective concentration for growth inhibition (W138 and W138VA cells): R0 (10 μM)^1
morphological change of cells (W138 cells [3]): elongation
IC50 (184-B5/HER cells [5]; [16]): 10.5 µM
induction of apoptosis versus solvent-treated control cells (184-B5/HER cells [7]): induced apoptosis to a significantly greater extent than solvent-treated control cells
inhibition at 4 µM (184-B5/HER cells [8]; [17]): 25 to 40%
effect on expression of HG3PDH [10]: did not affect the expression
effect on expression of c-fos (c-fos expression): did not significantly affect the expression
effect on expression of c-myc (c-myc expression): did not significantly affect the expression
effect on expression of ODC gene [11]: no effect
effect on expression of PCNA gene [12]: no effect
effect on expression of TK gene [13]: no effect
effect on expression of BRCA1 gene (BRCA1 gene expression): completely abolished expression
effect on expression of BRCA2 gene (BRCA2 gene expression): completely abolished expression

COc1ccc(C=Cc2cc(OC)c(OC)c(OC)c2)cc1 [MR-3, 3,4,4′,5-tetramethoxystilbene]
effect on growth ([1]; W138 cells, 1 μM): no effect
Growth Rate in Cells Following Exposure to Resveratrol Analogs, W138 Cells [1]: —
effect on proliferation ([2]; W138VA cells, 1 μM): completely blocked proliferation
Growth Rate in Cells Following Exposure to Resveratrol Analogs, W138VA Cells [2]: + (>60% growth inhibition)
rank in inhibiting cell growth among the methylated analogs (W138 and W138VA cells): most effective
effective concentration for growth inhibition (W138 and W138VA cells): MR3 (1 μM)
morphological change of cells (W138 cells [3]): flattening
neutral β-galactosidase activity (staining) [9]: increase in neutral β-galactosidase activity
IC50 (184-B5/HER cells [5]; 184B5, read-out: concentration that inhibited growth by 50% (IC50)): 1 µM
cell cycle effect relative to solvent-treated control cultures (184-B5/HER cells [6]): progressive arrest of cell in the G2/M phase
rank in cell cycle arrest (184-B5/HER cells [6]): most effective compound
induction of apoptosis versus solvent-treated control cells (184-B5/HER cells [7]): no effect
inhibition at 4 µM (184-B5/HER cells [8]; 184B5, read-out: inhibition of colony formation): ~80%
effect on expression of HG3PDH [10]: did not affect the expression
effect on expression of c-fos (c-fos expression): did not significantly affect the expression
effect on expression of c-myc (c-myc expression): did not significantly affect the expression
effect on expression of COX2 ([14]; W138VA cells): stimulated the expression
effect on expression of COX2 ([14]; W138 cells): not in W138 cells
effect on expression of ODC gene [11]: no effect
effect on expression of PCNA gene [12]: no effect
effect on expression of TK gene [13]: no effect
potency in inhibiting expression of BRCA1 compared with resveratrol (BRCA1 gene expression; at equal doses): more potent than resveratrol
effect on expression of BRCA1 gene (BRCA1 gene expression): completely abolished expression
potency in inhibiting expression of BRCA2 compared with resveratrol (BRCA2 gene expression; at equal doses): more potent than resveratrol
effect on expression of BRCA2 gene (BRCA2 gene expression): completely abolished expression
weight gains compared with control group ([15]; 12 weeks): comparable
tumor incidence ([15]; 12 weeks continuous feeding, control group 100%): 20%
